Counter-ions that a name gives are not always drawn.
Legend:
[1] = Stability in buffer at various pH values; type: physicochemical
Protocol: 0.3 mg of the test substance is weighed into a 2 ml HPLC vial and 0.5 ml of acetonitrile or acetonitrile/DMSO (9:1) is added. The substance is dissolved by putting the sample vessel in an ultrasonic bath for about 10 seconds. Then 0.5 ml of the respective buffer solution is added, and the sample is again treated in the ultrasonic bath.
pH 2: 0.03 mol of citric acid, 0.061 mol of sodium chloride and 0.0082 mol of hydrochoric acid ad 1 liter of water;
pH 4: 1 liter of Millipore water is adjusted to pH 4.0 with 1 N hydrochloric acid;
pH 5: 0.096 mol of citric acid and 0.2 mol of sodium hydroxide ad 1 liter of water;
pH 6: 0.06 mol of citric acid and 0.16 mol of sodium hydroxide ad 1 liter of water;
pH 7.4: 90.0 g of sodium chloride, 13.61 g of potassium dihydrogen phosphate and 83.35 g of 1 N sodium hydroxide solution are made up to 1 liter with water; this solution is then further diluted 1:10 with Millipore water.
pH 8: 0.013 mol of borax and 0.021 mol of hydrochloric acid ad 1 liter of water.
5 μl portions of the test solution are analyzed by HPLC for their content of unchanged test substance, and of active substance (A) formed, every hour over a period of 24 hours at 37° C. The percentage areas of the appropriate peaks are used for quantification.
The ratios of the peak areas (F) at the respective time points in relation to the peak areas at the starting time are shown in Table 2 for representative exemplary embodiments: […]

[2] = Determination of the solubility in 5% strength aqueous dextrose solution; type: physicochemical; conditions: saline or isotonic, thermodynamic from solid, room temperature
Protocol: The test substance is suspended in 5% strength aqueous dextrose solution. This suspension is shaken at room temperature for 24 h. After ultracentrifugation at 224 000 g for 30 min, the supernatant is diluted with DMSO and analysed by HPLC. A two-point calibration plot of the test compound in DMSO is used for quantification.
Agilent 1100 with DAD (G1315A), quat. Pump (G1311A), autosampler CTC HTS PAL, degasser (G1322A) and column thermostat (G1316A); column: Phenomenex Gemini C18, 5 μm, 50 mm×2 mm; temperature: 40° C.; eluent A: water/phosphoric acid pH 2, eluent B: acetonitrile; flow rate: 0.7 ml/min; gradient: 0-0.5 min 85% A, 15% B; ramp 0.5-3 min 10% A, 90% B; 3-3.5 min 10% A, 90% B; ramp 3.5-4 min 85% A, 15% B; 4-5 min 85% A, 15% B.
Agilent 1100 with DAD (G1315A), quat. pump (G1311A), autosampler CTC HTS PAL, degasser (G1322A) and column thermostat (G1316A); column: VDSoptilab Kromasil 100 C18, 3.5 μm, 60 mm×2.1 mm; temperature: 30° C.; eluent A: water+5 ml of perchloric acid/liter, eluent B: acetonitrile; flow rate: 0.75 ml/min; gradient: 0-0.5 min 98% A, 2% B; ramp 0.5-4.5 min 10% A, 90% B; 4.5-6 min 10% A, 90% B; ramp 6.5-6.7 min 98% A, 2% B; 6.7-7.5 min 98% A, 2% B.

| SMILES | % test substance after 4 h [F(t = 4 h) × 100/F(t = 0 h)] ([1]; pH 4, 37° C.) [%] | % test substance after 24 h [F(t = 24 h) × 100/F(t = 0 h)] ([1]; pH 4, 37° C.) [%] | % test substance after 4 h [F(t = 4 h) × 100/F(t = 0 h)] ([1]; pH 7.4, 37° C.) [%] | % test substance after 24 h [F(t = 24 h) × 100/F(t = 0 h)] ([1]; pH 7.4, 37° C.) [%] | solubility thermodynamic at 24 h [2] [µg/mL] | other results |
| --- | --- | --- | --- | --- | --- | --- |
| C[C@H](NC(=O)[C@@H](N)CCCCN)C(=O)OC[C@@H](COc1ccc(-c2c(C#N)c(N)nc(SCc3coc(-c4ccc(Cl)cc4)n3)c2C#N)cc1)OC(=O)[C@H](C)NC(=O)[C@@H](N)CCCCN [Example 34, (2R)-3-{4-[2-Amino-6-({[2-(4-chlorophenyl)-1,3-oxazol-4-yl]methyl}sulfanyl)-3,5-dicyanopyridin-4-yl]phenoxy}propane-1,2-diyl(2S,2′S)-bis(2-{[(2S)-2,6-diaminohexanoyl]amino}propanoate)tetrahydrochloride] | 100 | 99 | 0 | 0 |  |  |
| C[C@@H](O)[C@H](N)C(=O)NCCC(=O)OC[C@H](COc1ccc(-c2c(C#N)c(N)nc(SCc3coc(-c4ccc(Cl)cc4)n3)c2C#N)cc1)OC(=O)CCNC(=O)[C@@H](N)[C@@H](C)O [Example 39, (2S)-3-{4-[2-Amino-6-({[2-(4-chlorophenyl)-1,3-oxazol-4-yl]methyl}sulfanyl)-3,5-dicyanopyridin-4-yl]phenoxy}propane-1,2-diyl bis(3-{[(2S,3R)-2-amino-3-hydroxybutanoyl]amino}propanoate)bis(trifluoroacetic acid) salt] |  |  |  |  | 490 |  |
| C[C@H](NC(=O)[C@@H](N)CCN)C(=O)OC[C@H](COc1ccc(-c2c(C#N)c(N)nc(SCc3coc(-c4ccc(Cl)cc4)n3)c2C#N)cc1)OC(=O)[C@H](C)NC(=O)[C@@H](N)CCN [Example 3, (2S)-3-{4-[2-Amino-6-({[2-(4-chlorophenyl)-1,3-oxazol-4-yl]methyl}sulfanyl)-3,5-dicyanopyridin-4-yl]phenoxy}propane-1,2-diyl (2S,2′S)-bis(2-{[(2S)-2,4-diaminobutanoyl]amino}propanoate)tetrahydrochloride] |  |  |  |  | 590 |  |
| C[C@H](NC(=O)C[C@H](N)C(=O)O)C(=O)OC[C@H](COc1ccc(-c2c(C#N)c(N)nc(SCc3coc(-c4ccc(Cl)cc4)n3)c2C#N)cc1)OC(=O)[C@H](C)NC(=O)C[C@H](N)C(=O)O [Example 14, (2S,6S,9S,13S,17S)-2,17-Diamino-9-({4-[2-amino-6-({[2-(4-chlorophenyl)-1,3-oxazol-4-yl]methyl}sulfanyl)-3,5-dicyanopyridin-4-yl]phenoxy}methyl)-6,13-dimethyl-4,7,12,15-tetraoxo-8,11-dioxa-5,14-diazaoctadecane-1,18-dioic acid bis(trifluoroacetic acid) salt] | 96 | 95 | 100 | 91 |  |  |
| C[C@H](NC(=O)[C@@H](N)CCCN)C(=O)OC[C@H](COc1ccc(-c2c(C#N)c(N)nc(SCc3coc(-c4ccc(Cl)cc4)n3)c2C#N)cc1)OC(=O)[C@H](C)NC(=O)[C@@H](N)CCCN [Example 4, (2S)-3-{4-[2-Amino-6-({[2-(4-chlorophenyl)-1,3-oxazol-4-yl]methyl}sulfanyl)-3,5-dicyanopyridin-4-yl]phenoxy}propane-1,2-diyl (2S,2′S)-bis(2-{[(2S)-2,5-diaminopentanoyl]amino}propanoate)tetrahydrochloride] |  |  |  |  | 860 |  |
| CC(C)[C@H](NC(=O)[C@H](C)N)C(=O)OC[C@H](COc1ccc(-c2c(C#N)c(N)nc(SCc3coc(-c4ccc(Cl)cc4)n3)c2C#N)cc1)OC(=O)[C@@H](NC(=O)[C@H](C)N)C(C)C [Example 28, (2S)-3-{4-[2-Amino-6-({[2-(4-chlorophenyl)-1,3-oxazol-4-yl]methyl}sulfanyl)-3,5-dicyanopyridin-4-yl]phenoxy}propane-1,2-diyl(2S,2′S)-bis(2-{[(2S)-2-aminopropanoyl]amino}-3-methylbutanoate)dihydrochloride] | 100 | 99 | 99 | 88 |  |  |
| CC(C)[C@H](N)C(=O)N[C@@H](C)C(=O)OC[C@H](COc1ccc(-c2c(C#N)c(N)nc(SCc3coc(-c4ccc(Cl)cc4)n3)c2C#N)cc1)OC(=O)[C@H](C)NC(=O)[C@@H](N)C(C)C [Example 26, (2S)-3-{4-[2-Amino-6-({[2-(4-chlorophenyl)-1,3-oxazol-4-yl]methyl}sulfanyl)-3,5-dicyanopyridin-4-yl]phenoxy}propane-1,2-diyl (2S,2′S)-bis(2-{[(2S)-2-amino-3-methylbutanoyl]amino}propanoate)dihydrochloride] | 100 | 99 | 84 | 34 |  | % test substance after 4 h [F(t = 4 h) × 100/F(t = 0 h)] ([1]; pH 5, 37° C.): 97%; % test substance after 24 h [F(t = 24 h) × 100/F(t = 0 h)] ([1]; pH 5, 37° C.): 92% |
| C[C@H](N)C(=O)NCCC(=O)OC[C@H](COc1ccc(-c2c(C#N)c(N)nc(SCc3coc(-c4ccc(Cl)cc4)n3)c2C#N)cc1)OC(=O)CCNC(=O)[C@H](C)N [Example 31, (2S)-3-{4-[2-Amino-6-({[2-(4-chlorophenyl)-1,3-oxazol-4-yl]methyl}sulfanyl)-3,5-dicyanopyridin-4-yl]phenoxy}propane-1,2-diyl bis(3-{[(2S)-2-aminopropanoyl)amino}propanoate)dihydrochloride] |  |  |  |  | 220 |  |
| C[C@H](N)C(=O)N[C@H](C(=O)OC[C@H](COc1ccc(-c2c(C#N)c(N)nc(SCc3coc(-c4ccc(Cl)cc4)n3)c2C#N)cc1)OC(=O)[C@@H](NC(=O)[C@H](C)N)[C@@H](C)O)[C@@H](C)O [Example 38, (2S)-3-{4-[2-Amino-6-({[2-(4-chlorophenyl)-1,3-oxazol-4-yl]methyl}sulfanyl)-3,5-dicyanopyridin-4-yl]phenoxy}propane-1,2-diyl (2S,3R,2′S,3′R)-bis(2-{[(2S)-2-aminopropanoyl]amino}-3-hydroxybutanoate)bis(trifluoroacetic acid) salt] |  |  |  |  | 750 |  |
| C[C@@H](O)[C@H](NC(=O)CN)C(=O)OC[C@H](COc1ccc(-c2c(C#N)c(N)nc(SCc3coc(-c4ccc(Cl)cc4)n3)c2C#N)cc1)OC(=O)[C@@H](NC(=O)CN)[C@@H](C)O [Example 36, (2S)-3-{4-[2-Amino-6-({[2-(4-chlorophenyl)-1,3-oxazol-4-yl]methyl}sulfanyl)-3,5-dicyanopyridin-4-yl]phenoxy}propane-1,2-diyl (2S,3R,2′S,3′R)-bis{2-[(aminoacetyl)amino]-3-hydroxybutanoate}bis(trifluoroacetic acid) salt] |  |  |  |  | 700 |  |
